Results reported in patent publication EP0986381B1, “USE OF DITERPENES LIKE HYPOESTOXIDES FOR THE MANUFACTURE OF A MEDICAMENT FOR IMMUNOSUPPRESSION, ANTICANCER AND ANTIVIRAL TREATMENT” (Immune Modulation, Inc., priority 1997, dated 1998).

Experiments:
[1] = tested on: IL-1β, TNF-α, and IL-6; experiment: LPS-induced pro-inflammatory cytokine synthesis in PBMC, enzyme immunoassay; type: cell-based, human; conditions: 1 µg/mL JO-4, LPS-stimulated PBMC
Method: Human peripheral blood mononuclear cells (PBMC) were cultured with B-cell mitogen LPS (Gibco BRL, Grand Island, NY) 3 µg/mL) at 2 x 10^6/mL in 1.0 mL volumes in 24-well plates in the presence of either 1 µg/mL JO-4 or medium for 48 hr. In a 37°C incubator with 5% CO2. Culture supernatants were collected at the end of incubation period and were assayed by enzyme immunoassay for the presence of the cytokines: interleukin-1β,-6 and TNF-α. Results are expressed as inhibition of cytokine production.

[2] = tested on: mouse malignant melanoma cells (B16-F1); experiment: Colorimetric MTT cytotoxicity assay, B16-F1; type: cell-based; conditions: B16-F1, 72 hours, read-out: IC50 concentration (cytotoxicity)
Method: (§1) The following materials and methods were employed in the non-limiting Examples set out below. Tumor cells: Human cervical epitheloid carcinoma (HeLa), human renal clear cell carcinoma (CAKI-1), human malignant melanoma (RPMI-7951) and mouse malignant melanoma (B16-F1) were procured from ATCC (Rockville, MD) and maintained in vitro with MEM medium (Mediatech, Inc., Herndon, VA) supplemented with 10% heat-inactivated fetal bovine serum (American Qualex, San Clemente, CA), 10mM glutamine, 100 U/ml penicillin, and 100 µg/ml streptomycin (Sigma Chemicals, Saint Louis, MO) (complete medium). […] Cell viability was assessed by trypan blue dye exclusion test and the cell number was adjusted to required concentration. Colorimetric MTT assay: Cytotoxic effects of the hypoestoxide compounds of formulas I and II (JO-4A) were determined in vitro by a colorimetric assay (Mosmann, T., J. Immunol. Methods, 65: 55-63, 1983). […] Mixing with a multichannel pipetter dissolved the dark blue crystals and the absorbance was measured at 545-650 nm using an ELISA plate reader. […] The tumors were measured with a microcaliper, and the tumor volume was calculated by the formula: Length x width x height x 0.5236 (Jungwirth, A. et al., Proc. Natl. Acad. Sci. USA, 94:5810-5813, 1997). […]

[3] = Colorimetric MTT cytotoxicity assay, HUVEC; type: cell-based; conditions: human, read-out: IC50 concentration (cytotoxicity)
Method: as §1

[4] = tested on: renal carcinoma (CAKI-1) cells; experiment: Colorimetric MTT cytotoxicity assay, CAKI-1; type: cell-based; conditions: Homo sapiens; CAKI-1, 72 hours
Method: as §1

| SMILES | effect on pro-inflammatory cytokine synthesis [1] | IC50 [2] | CC50 at 72 h [3] | IC50 [4] |
| --- | --- | --- | --- | --- |
| C=C1C(=O)C[C@H]2C[C@@H]3O[C@@]3(C)CC[C@@H]3O[C@@]3(C)C[C@@H](OC(C)=O)[C@H]1C2(C)C [JO-4, hypoestoxide] | inhibitory or immunosuppressant effect | – | – | – |
| C=C1C(=O)CC2CC3OC3(C)CCC3OC3(C)CC(O)C1C2(C)C (stereo not shown) [JO-4A] | – | 6.25 to 12.5 µM | 25 to 50 µM | 20 to 40 µM |
